Data as given in patent US10233190B2, “IDO inhibitors” (NewLink Genetics Corporation, priority 2011, dated 2019).

What was measured:
[1] = Steady state plasma concentration from subcutaneous osmotic pumps
[2] = tested on: LLC murine tumor cells; experiment: In vivo antitumor activity, LLC tumor allograft, alone or with chemotherapy; conditions: for antitumor effect: LLC tumor in C57Bl6 mice, single agent or in combination with chemotherapy

SMILES: OC(CC1c2ccccc2-c2cncn21)C1CCCCC1 (stereo not drawn) [Compound 1304, 1-cyclohexyl-2-(5H-imidazo[5,1-a]isoindol-5-yl)ethanol]
- steady state plasma concentration of drug ([1]; s.c. osmotic pumps, 200 uL of 30 mg/mL solution, 1 uL per hour for 8 days): 0.5 to 3 µM
- antitumor effect [2]: significant antitumor effect
- long term survival fraction, mice tumor free after 60 days ([2]; LLC tumor, after 60 days): 70-80%
- median survival time (log rank test) ([2]; LLC tumor, single agent or in combination with cyclophosphamide): statistically significant difference in median survival time
- average tumor volume over time ([2]; LLC tumor, single agent or in combination with cyclophosphamide 100 mg/kg i.p.): very sensitive to the effects of treatment

SMILES: OC(CC1c2c(F)cccc2-c2cncn21)C1CCCCC1 (stereo not drawn) [Compound 1357, 1-cyclohexyl-2-(6-fluoro-5H-imidazo[5,1-a]isoindol-5-yl)ethanol]
- steady state plasma concentration of drug ([1]; mouse, in vivo): 0.5 to 3 µM
- antitumor effect [2]: significant antitumor effect
- median survival time vs vehicle (log rank test) ([2]; LLC tumor, single agent): statistically significant difference in median survival time
- average tumor volume over time vs vehicle (fitted exponential growth curves) ([2]; LLC tumor, single agent, osmotic pumps, p<0.0001): statistically significant differences
